Data: patent US9420813B2, “Sweetener” (AJINOMOTO CO., INC., priority 2007, dated 2016)
*1 amine or outer side, *2 acyl side, *3 side chain or, on linkers, in order; H or OH if unused. Where no end group is shown, it is not given here. [ ]: non-standard residue; d: D form. γGlu = O=C(O)[C@H](CCC(=O)[*:2])N[*:1]; Abu = CC[C@H](N)C(=O)O

Legend:
[1] = Quantitative sensory evaluation, body taste and bitterness in drinkable yogurt containing high intensity sweetener (Example 5); set-up: species or system human; settings: for Bitterness: control 0, <0 improved; for Bitterness / Body taste: n=12; for Body taste: control 0, >0 improved
Experimental: The quantitative sensory evaluation test was performed as follows. As for a drinkable yogurt standard solution, the following compounds were used. The following standard solutions have been adjusted so they each have almost the same degree of sweetness.
To a drinkable yogurt containing each of the sweeteners, γ-Glu-Val-Gly or cinacalcet was added and mixed at concentrations 0.0001 to 1 g/dl, and then each degree of the improvement of the body taste and the improvement of the bitterness on the sweet taste was measured.
(§1) When a mixture is more acidic than the standard control solution, the pH of the sample was adjusted with NaOH to achieve a range of pH±0.2 with respect to the pH of the standard solution before use.
(§2) The sensory evaluation for the improvement of the body taste was performed with n=12 on the basis of the following criteria: a control (obtained with adding distilled water only and without adding the sample) was defined as 0, and by using the control as a standard, the following were defined: weak: −2 points; slightly weak: −1 point; slightly strong: 1 point, and strong: 2 points. A higher score than 0 means that the sample has a body taste-improving effect.
as §2, with “On the other hand, the” for “The”, “bitterness” for “body taste”, “lower” for “higher”, “improves the bitterness.” for “has a body taste-improving effect.”

[2] = Quantitative sensory evaluation, improvement of body taste and bitterness of combined high-intensity sweeteners (Examples 2 and 4); set-up: species or system human; settings: for Bitterness: control 0, <0 improved; for Bitterness / Body taste: n=12; for Body taste: control 0, >0 improved
Experimental: The quantitative sensory evaluation test was performed as follows. As for a combination standard solution of each sweeteners, the following compounds were used. The following standard solutions have been adjusted so they each have almost the same degree of sweetness.
ii) APM (0.02 g/dl)+Ace-K (0.005 g/dl) [APM:Ace-K=8:2 as a ratio of degrees of sweetness]
iii) Sucralose (0.0058 g/dl)+Ace-K (0.0075 g/dl) [sucralose:Ace-K=7:3 as a ratio of degrees of sweetness]
iv) APM (0.0125 g/dl)+sucralose (0.0042 g/dl) [APM:sucralose=1:1 as a ratio of degrees of sweetness]
v) APM (0.0125 g/dl)+sucralose (0.0021 g/dl)+Ace-K (0.0063 g/dl) [APM:sucralose:Ace-K=2:1:1 as a ratio of degrees of sweetness]
To distilled water containing each of the sweeteners, γ-Glu-Cys-Gly (glutathione), γ-Glu-Val-Gly or γ-Glu-Abu-Gly was added and mixed at concentrations of 0.0001 to 1 g/dl, and then the degree of the improvement of the body taste and the improvement of the bitterness on the sweet taste was measured. The addition effect of the peptides on each of the high-intensity sweeteners was evaluated with reference to sucrose.
When a mixture is more acidic than the standard control solution, the pH of the mixture was adjusted with NaOH to achieve a range of pH±0.2 with respect to the pH of the standard solution before use.
The sensory evaluation for the improvement of the body taste was performed with n=12 on the basis of the following criteria: a control (obtained by adding distilled water only and without adding glutathione and/or the peptide) was defined as 0, and by using the control as a standard, the follow were defined: weak: −2 points; slightly weak: −1 point; slightly strong: 1 point, and strong: 2 points. A higher score than 0 means that the sample has a body taste-improving effect.
(§3) Alternatively, the sensory evaluation for the improvement of the bitterness was performed with n=12 on the basis of the following criteria: a control (obtained by adding distilled water only and without adding glutathione and/or the peptide) was defined as 0, and by using the control as a standard, the following were defined: weak: −2 points; slightly weak: −1 point; slightly strong: 1 point, and strong: 2 points. A lower score than 0 means that the sample improves the bitterness.
The quantitative sensory evaluation test was performed as follows. As for combination standard solution of each sweeteners, the following compound was used. The following standard solutions have been adjusted so they each have almost the same degree of sweetness.
To distilled water containing each sweetener mentioned above, γ-Glu-Val-Gly or cinacalcet was added and mixed at concentrations of 0.0001 to 1 g/dl, and then each degree of the improvement of the body taste and the improvement of the bitterness on the sweet taste was measured. The addition effect of the sample on each of the high intensity sweeteners was evaluated with reference to sucrose.
as §1
as §2, with “improves the” for “has a”, “taste.” for “taste-improving effect.”
as §3, with “(obtained with” for “(obtained by”, “adding” for “adding glutathione and/or”, “the sample)” for “the peptide)”, “points. […]” for “points. A lower score than 0 means that the sample improves the bitterness.”

[3] = drinkable yogurt with APM 0.025 g/dl, sample 0.0001 g/dl
[4] = drinkable yogurt with APM 0.025 g/dl, sample 0.001 g/dl
[5] = APM 0.0125 + sucralose 0.0021 + Ace-K 0.0063 g/dl (2:1:1), sample 0.0001 g/dl
[6] = APM 0.0125 + sucralose 0.0021 + Ace-K 0.0063 g/dl (2:1:1), sample 0.001 g/dl
[7] = APM 0.0125 g/dl + sucralose 0.0042 g/dl (1:1), sample 0.0001 g/dl
[8] = APM 0.0125 g/dl + sucralose 0.0042 g/dl (1:1), sample 0.001 g/dl
[9] = APM 0.02 g/dl + Ace-K 0.005 g/dl (8:2), sample 0.0001 g/dl
[10] = APM 0.02 g/dl + Ace-K 0.005 g/dl (8:2), sample 0.001 g/dl
[11] = sucralose 0.0058 g/dl + Ace-K 0.0075 g/dl (7:3), sample 0.0001 g/dl
[12] = sucralose 0.0058 g/dl + Ace-K 0.0075 g/dl (7:3), sample 0.001 g/dl
[13] = APM 0.0125 + sucralose 0.0021 + Ace-K 0.0063 g/dl (2:1:1), sample 0.05 g/dl
[14] = APM 0.0125 g/dl + sucralose 0.0042 g/dl (1:1), sample 0.05 g/dl
[15] = APM 0.02 g/dl + Ace-K 0.005 g/dl (8:2), sample 0.05 g/dl
[16] = sucralose 0.0058 g/dl + Ace-K 0.0075 g/dl (7:3), sample 0.05 g/dl
[17] = APM 0.0125 + sucralose 0.0021 + Ace-K 0.0063 g/dl (2:1:1), sample 0.01 g/dl
[18] = APM 0.0125 g/dl + sucralose 0.0042 g/dl (1:1), sample 0.01 g/dl
[19] = APM 0.02 g/dl + Ace-K 0.005 g/dl (8:2), sample 0.01 g/dl
[20] = sucralose 0.0058 g/dl + Ace-K 0.0075 g/dl (7:3), sample 0.01 g/dl

Compound: [γGlu]-Val-Gly
- Bitterness [1, 3]: −0.2 points
- Body taste [1, 3]: 0.5 points
- Taste profile [1, 4]: Growth is present in middle taste. Sweet taste
- Bitterness [1, 4]: −0.5 points
- Body taste [1, 4]: 1.4 points
- improvement of the body taste (conclusion in words) ([1]; drinkable yogurt with APM, Table 20): improves the body taste at almost the same concentration
- Bitterness [2, 5]: −0.3 points
- Body taste [2, 5]: 0.6 points
- Bitterness [2, 6]: −0.7 points
- Body taste [2, 6]: 1.3 points
- Bitterness [2, 7]: −0.2 points
- Body taste [2, 7]: 0.6 points
- Bitterness [2, 8]: −0.4 points
- Body taste [2, 8]: 1.3 points
- Bitterness [2, 9]: −0.3 points
- Body taste [2, 9]: 0.6 points
- Bitterness [2, 10]: −0.7 points
- Body taste [2, 10]: 1.3 points
- Taste profile ([2]; APM:Ace-K = 8:2, sample 0.0001 g/dl): Sweet taste with growth is enhanced in middle
- improvement of the body taste (conclusion in words) ([2]; combined sweetener solutions, Tables 9 to 12 and 16 to 19): improves the body taste at almost the same concentration
- Bitterness [2, 11]: −0.3 points
- Body taste [2, 11]: 0.7 points
- Bitterness [2, 12]: −0.7 points
- Body taste [2, 12]: 1.3 points

Compound: N[C@@H](CCC(=O)N[C@@H](CS)C(=O)NCC(=O)O)C(=O)O [γ-Glu-Cys-Gly, reference compound]
- Bitterness [2, 13]: −0.3 points
- Body taste [2, 13]: 1.2 points
- Bitterness [2, 14]: −0.3 points
- Body taste [2, 14]: 1.0 points
- Bitterness [2, 15]: −0.3 points
- Body taste [2, 15]: 1.0 points
- Taste profile ([2]; APM:Ace-K = 8:2, sample 0.05 g/dl): Sweet taste is wholly enhanced.
- Taste profile ([2]; APM:sucralose = 1:1, sample 0.05 g/dl): Sweet taste is enhanced in middle taste.
- Taste profile ([2]; APM:sucralose:Ace-K = 2:1:1, sample 0.05 g/dl): Sweet taste is wholly enhanced.
- Bitterness [2, 16]: −0.3 points
- Body taste [2, 16]: 1.0 points
- Taste profile ([2]; sucralose:Ace-K = 7:3, sample 0.05 g/dl): Sweet taste is enhanced in middle taste.

Compound: [γGlu]-[Abu]-Gly
- Bitterness [2, 6]: −0.4 points
- Body taste [2, 6]: 0.6 points
- Bitterness [2, 17]: −0.8 points
- Body taste [2, 17]: 1.3 points
- Bitterness [2, 8]: −0.1 points
- Body taste [2, 8]: 0.6 points
- Bitterness [2, 18]: −0.1 points
- Body taste [2, 18]: 1.3 points
- Bitterness [2, 10]: −0.3 points
- Body taste [2, 10]: 0.6 points
- Bitterness [2, 19]: −0.7 points
- Body taste [2, 19]: 1.3 points
- Taste profile ([2]; APM:sucralose = 1:1, sample 0.001 g/dl): Harmony is present. Sweet taste is enhanced
- Taste profile ([2]; APM:sucralose = 1:1, sample 0.01 g/dl): Harmony is present. Sweet taste is enhanced
- Bitterness [2, 12]: −0.3 points
- Body taste [2, 12]: 0.5 points
- Bitterness [2, 20]: −0.7 points
- Body taste [2, 20]: 1.1 points
